Source: ChEMBL document CHEMBL1201862, “PubChem BioAssay data set” (2004)
Activity calls are given as the source filed them. Rule as the data show it: actives have a measured IC50 and inactives only a lower limit.

Molecular target: Envelope glycoprotein gp160 (Human immunodeficiency virus 1, UniProt Q6QLK5)
Experiment: inhibitors of HIV fusion peptide binding, primary screen, biochemical, uHTS, fluorescence dequenching (AID 1986)

Sequence of Envelope glycoprotein gp160 (Q6QLK5 whole entry, the tested form may be a part): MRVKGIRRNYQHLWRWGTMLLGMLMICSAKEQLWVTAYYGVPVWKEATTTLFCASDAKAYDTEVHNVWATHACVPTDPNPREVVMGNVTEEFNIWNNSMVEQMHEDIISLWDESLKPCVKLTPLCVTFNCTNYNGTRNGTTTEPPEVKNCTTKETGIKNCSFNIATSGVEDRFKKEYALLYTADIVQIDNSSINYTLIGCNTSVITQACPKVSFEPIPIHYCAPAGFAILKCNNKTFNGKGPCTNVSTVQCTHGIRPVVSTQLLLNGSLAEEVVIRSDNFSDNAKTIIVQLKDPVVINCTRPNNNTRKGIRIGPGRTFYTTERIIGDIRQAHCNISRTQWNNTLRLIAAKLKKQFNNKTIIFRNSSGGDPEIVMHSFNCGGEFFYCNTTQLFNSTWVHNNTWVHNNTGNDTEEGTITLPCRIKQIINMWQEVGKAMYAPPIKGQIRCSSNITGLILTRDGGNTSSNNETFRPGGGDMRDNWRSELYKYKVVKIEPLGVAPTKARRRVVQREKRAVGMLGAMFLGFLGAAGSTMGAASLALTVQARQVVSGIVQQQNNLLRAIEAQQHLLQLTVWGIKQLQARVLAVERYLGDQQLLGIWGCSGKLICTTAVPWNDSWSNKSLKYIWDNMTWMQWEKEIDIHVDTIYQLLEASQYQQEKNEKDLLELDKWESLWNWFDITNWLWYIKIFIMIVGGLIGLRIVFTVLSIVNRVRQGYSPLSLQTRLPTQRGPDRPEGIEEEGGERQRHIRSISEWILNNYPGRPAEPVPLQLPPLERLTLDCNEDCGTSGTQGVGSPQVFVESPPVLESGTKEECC

Row | Structure (SMILES) | IC50
1 | O=C(CCN1C(=O)/C(=C\C=C\c2ccccc2)SC1=S)Nc1ccccc1C(=O)O | 20.2 µM (active)
2 | COc1cc(/C=C2/SC(=S)NC2=O)ccc1OS(=O)(=O)c1ccc(C)cc1 | 16.5 µM (active)
3 | O=C(O)c1cc(-c2ccc(-c3c(-c4ccc5c(c4)OCO5)noc3-c3ccsc3)cc2)nc2ccccc12 | 52.2 µM (active)
4 | O=C(Nc1cc(S(=O)(=O)N2CCCCC2)ccc1Cl)c1ccccc1NS(=O)(=O)c1ccc(F)cc1 | 13.4 µM (active)
5 | O=C(O)COc1ccccc1/C=N/Nc1ccc(S(=O)(=O)Nc2ccc(Cl)cc2)cc1[N+](=O)[O-] | 19.6 µM (active)
